How the values were obtained:
KOCL-48 cells = assay: MTS cell viability, KOCL-48; format: cell-based; conditions: 48 hrs, unit inferred
Method: (§1) In order to identify chemical compounds that may target TET1 signaling, the drug-sensitivity/gene expression database of a total of 20,602 chemical compounds in the NCI-60 collection of cancer cell samples was searched.
(§2) All cell lines were authenticated through STR profiling yearly.
(§3) These experiments were conducted as described previously (Jiang, X., et al., Blockade of miR-150 Maturation by MLL-Fusion/MYC/LIN-28 Is Required for MLL-Associated Leukemia, Cancer Cell 22:524-35 (2012); Li, Z., et al., miR-196b directly targets both HOXA9/MEIS1 oncogenes and FAS tumour suppressor in MLL-rearranged leukaemia, Nat Commun 2:688 (2012)) with ApoLive-Glo Multiplex Assay Kit, or CellTiter 96 AQueous Non-Radioactive Cell Proliferation Assay Kit (Promega, Madison, Wis.).

[1] = system: MONOMAC-6, THP-1, KOCL-48 and KASUMI-1 cells; assay: MTS cell viability, four TET1-high AML cell lines together; format: cell-based
Method: as §1, §2, §3

THP-1 cells = assay: MTS cell viability, THP-1; format: cell-based; conditions: Homo sapiens, 48 hrs, unit inferred
Method: as §1, §2, §3

[2] = system: STAT3 and STAT5 phosphorylation; assay: Western blotting of STAT phosphorylation in MONOMAC-6 cells; format: cell-based; conditions: 250 nM, 0 min to 24 hrs
Excerpt: FIG. 10. […] Relative cell viabilities are shown. […] Levels of TET1 transcripts are shown. […] (e-h) MONOMAC-6, THP-1 and NB4 cells were transfected with control siRNA (siNC), siSTAT3, or siSTAT5. Expression levels of STAT5 (e), STAT3 (f), TET2 (g) and TET3 (h) were detected by qPCR 48 hrs post-transfection. (i) THP-1 cells were transfected with control siRNA (siNC), siTET1, siJAK1 or siSTAT5. Gene expression levels were detected by qPCR 48 hrs post-transfection. […] (j) ChIP-qPCR assay was carried out 48 hrs after drug treatment. Enrichment of TET1 or IgG at the JAK1 promoter region and other regions are shown. […] Protein levels were detected thereafter. […] Expression levels of TET1, HIF2 a, IL2RA and FRA2 (1) were detected through qPCR. The enrichment of STAT5 on the promoters of TET1 (Site 2; CpG), HIF2a, IL2RA and FRA2 (m) was determined through ChIP-qPCR assays. *, P<0.05; **, P<0.01, two-tailed t-test. Error bar indicates SD of triplicate experiments.
Cells were washed twice with ice-cold phosphate-buffered saline (PBS) and ruptured with RIPA buffer (Pierce, Rockford, Ill.) containing 5 mM EDTA, PMSF, cocktail inhibitor, and phosphatase inhibitor cocktail. Cell extracts were microcentrifuged for 20 min at 10,000 g and supernatants were collected. Cell lysates were resolved by SDS-PAGE and transferred onto PVDF membranes. […]

THP-1 and KASUMI-1 cells = assay: Combination with daunorubicin in AML cells; format: cell-based; conditions: 25 nM compound and 100 nM DNR; 48 hours
NB4 cells = assay: MTS cell viability, TET1-low control cell line; format: cell-based; conditions: up to 500 nM, 48 hrs
Method: FIG. 1. […] Cell viability was analyzed by MTS 48 hours post-treatment. […] TET1 expression levels were detected by qPCR 48 hrs post-treatment. […] TET1 expression levels (e) and cell viability (f) were detected 24 hrs post-treatment. *, P<0.05, two-tailed t-test. MM6, MONOMAC-6. Error bar indicates SD of triplicate experiments.
MONOMAC-6, THP-1, KOCL-48, KASUMI-1, ML-2 and NB4 cells were purchased from ATCC (Manassas, Va.), and cultured as described previously (Jiang, X., et al. Blockade of miR-150 Maturation by MLL-Fusion/MYC/LIN-28 Is Required for MLL-Associated Leukemia. Cancer Cell 22, 524-535 (2012); Li, Z., et al. miR-196b directly targets both HOXA9/MEIS1 oncogenes and FAS tumour suppressor in MLL-rearranged leukaemia. (Li, Z., et al., miR-196b directly targets both HOXA9/MEISV oncogenes and FAS tumour suppressor in MLL-rearranged leukaemia, Nat Commun 2:688 (2012)). All cell lines were tested for mycoplasma contamination yearly using a PCR Mycoplasma Test Kit (PromoKine) and were proven to be mycoplasma negative. All cell lines were authenticated through STR profiling yearly. […]

[3] = target: STAT3 and the TET1 CpG island (Homo sapiens, UniProt P40763); assay: Electrophoretic mobility shift assay (EMSA); format: biochemical
Chain of STAT3 and the TET1 CpG island (P40763 whole entry, species assumed): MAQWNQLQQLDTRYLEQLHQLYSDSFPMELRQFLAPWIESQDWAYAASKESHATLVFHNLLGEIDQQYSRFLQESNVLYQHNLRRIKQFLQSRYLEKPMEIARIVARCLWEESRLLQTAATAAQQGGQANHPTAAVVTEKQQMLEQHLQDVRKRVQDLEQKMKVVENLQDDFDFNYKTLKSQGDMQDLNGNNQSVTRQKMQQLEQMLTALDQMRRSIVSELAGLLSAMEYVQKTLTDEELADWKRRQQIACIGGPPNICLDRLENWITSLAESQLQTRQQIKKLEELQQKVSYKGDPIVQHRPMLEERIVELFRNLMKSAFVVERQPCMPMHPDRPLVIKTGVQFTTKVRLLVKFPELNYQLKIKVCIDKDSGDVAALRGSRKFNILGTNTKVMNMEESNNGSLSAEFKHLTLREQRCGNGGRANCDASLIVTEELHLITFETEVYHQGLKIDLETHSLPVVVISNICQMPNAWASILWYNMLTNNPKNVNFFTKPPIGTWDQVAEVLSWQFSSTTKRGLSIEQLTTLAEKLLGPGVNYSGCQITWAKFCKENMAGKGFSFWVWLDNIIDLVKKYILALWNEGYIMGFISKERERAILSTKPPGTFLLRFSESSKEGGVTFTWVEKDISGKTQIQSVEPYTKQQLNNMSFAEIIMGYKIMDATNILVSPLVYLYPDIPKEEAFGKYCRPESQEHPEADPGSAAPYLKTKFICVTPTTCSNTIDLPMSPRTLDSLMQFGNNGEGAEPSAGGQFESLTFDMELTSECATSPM
Method: EMSA was conducted with EMSA Assay Kit (Signosis, Santa Clara, Calif.) according to the manufacturer's protocol with minor modifications. Briefly, purified STAT3 protein was incubated with Biotin-labeled TET1-CPG probe (hot probe) and/or cold probe, and then protein/DNA complexes were separated on a non-denaturing polyacrylamide gel. Bands were detected using Streptavidin-HRP conjugate and a chemiluminescent substrate. The sequences of the TET1-CPG probe are: Forward: 5′ Biotin-[…]-3′ (SEQ ID NO: 11); Reverse: 5′ Biotin-[…]-3′ (SEQ ID NO: 12).

in vivo = assay: in vivo; set-up: species or system C57BL/6 mice; conditions: C57BL/6, mouse
Excerpt: FIG. 17. […] Error bar indicates SD of triplicate experiments.

Row | Structure (SMILES) | IC50 (KOCL-48 cells) [nM] | inhibition of cell viability of all four TET1-high AML cell lines ([1]; 0, 50, 200, 500 nM, MTS 48 hours, among top 20 candidates) | cell viability at low dose, short term ([1]; 25 nM, 24 hours, MONOMAC-6, THP-1 and KOCL-48 cells) | IC50 ([1]; average over the cell lines, unit inferred) [nM] | IC50 (THP-1 cells) [nM] | levels of STAT3 and STAT5 phosphorylation [2] | combined effect with DNR on inhibiting viability (THP-1 and KASUMI-1 cells) | inhibition of viability of NB4 cells (NB4 cells) | association between STAT3 and the TET1 CpG island [3] | half-life (in vivo) [h] | AUC(0-inf) (in vivo; ip, 15 mg/kg) [ng·h/mL] | Clearance (in vivo; ip, 15 mg/kg) [mL/min/kg] | MRT (in vivo; ip, 15 mg/kg) [h] | Volume of Distribution (in vivo; ip, 15 mg/kg) [L/kg] | half-life (in vivo; ip, 15 mg/kg) [h]
1 | COc1cc(C(c2cc3c(cc2O)OCO3)N2CCCC2)cc(OC)c1OC (centres unmarked) [NSC-370284, 6-(1-Pyrrolidinyl(3,4,5-trimethoxyphenyl)methyl)-1,3-benzodioxol-5-ol] | 38.2 | most significant effects in inhibiting cell viability | very minor decrease | 9.75 | 0.356 | no significant alterations | works synergistically | no significant inhibition | almost be completely blocked | – | – | – | – | – | –
2 | CC(C)(C)c1cc(C(c2cc3c(cc2O)OCO3)N2CCOCC2)cc(C(C)(C)C)c1O (centres unmarked) [UC-514321, 6-{[4-Hydroxy-3,5-bis(2-methyl-2-propanyl)phenyl](4-morpholinyl)methyl}-1,3-benzodioxol-5-ol] | – | – | – | – | – | – | works synergistically | no inhibitory effect | – | 11 | 29400 ± 2750 | 22.7 ± 1.3 | 16.1 ± 1.79 | 21.66 ± 1.74 | 11 ± 2.51
